This note sets out measurements from article PMC4865845, “A human genome-wide loss-of-function screen identifies effective chikungunya antiviral drugs” (Nature Communications, 2016).

The series concerns CHIKV. The class given is cell-based, chikungunya virus.
“s916 (GCATCGCAAACTTCACCAA; chemistry not given here)”: the Score_si3 is reported as 1.06.

In turn, “s35016 (CCTGATCCACGAGAAGTCA; chemistry not given here)” came in with a Score_si2 of 1.63. “Hs_RORC_3 (sense CCGGGCCTACAATGCTGACAA; chemistry not given here)” registered a Score_si4 of 0.9. The same measure, in the same setting: as for “Hs_SIMP_1 (sense CAGGGAGACATTAGATCACAA; chemistry not given here) [reference compound]”, the figure is -0.7. Regarding “s14380 (sense GGACCACGTCAAGACTTGT; chemistry not given here) [reference compound]”, the Score_si3 was -0.84. On to “Hs_NRD1_2 (AAGGCTTTCGATTGCCCGGAA; chemistry not given here)”, for which the Score_si2 is listed as 1.41.

Turning to “Hs_TADA3L_1 (sense CTGACCGAACTGGACACTAAA; chemistry not given here) [reference compound]”, the Score_si2 is -1.72. Substance “s18240 (GATTGATGCTGGAAGTAGA; chemistry not given here)” showed a Score_si3 of 1.21. With “s195939 (sense GCGGCTGATTTATCTCTGC; chemistry not given here) [reference compound]”, the Score_si4 was -0.22. Turning to “Hs_NAG_2 (CAGACAGAAATTCTTTATCAA; chemistry not given here)”, the Score_si1 amounted to 2.66. Still for that read-out and setting: the result for “Hs_TREX2_1 (CACAATGGCTTTGATTATGAT; chemistry not given here) [reference compound]” reads -2.42.

Consider “s19989 (sense CTATGCTACCCTCTACTTT; chemistry not given here)”, for which the Score_si4 was determined as 0.18. For “Hs_CIZ1_1 (sense CAGGTGAGGTCCAGAGATATA; chemistry not given here) [reference compound]”, the Score_si1 is -1.69. In the case of “Hs_CCNF_3 (sense CACAGATGGCGTCAATGTGAA; chemistry not given here)”, the Score_si2 is 1.09. For the substance “Hs_XRN1_1 (CAGGTCGTAAATATCAAATAA; chemistry not given here)”, the Score_si3 was 1.08. Still for that read-out and setting: as for “Hs_AOF2_3 (ACGAGTTGCCACATTTCGCAA; chemistry not given here)”, the figure is 1.26. Turning to “s17018 (GGAAATAGGTCTAGTACTA; chemistry not given here)”, the Score_si3 is on record as 1.2. In turn, “s26230 (sense CGGGACCAATTACCGCAAA; chemistry not given here)” gave a Score_si4 of -0.18. On to “s7007 (sense GGATCGGGTTCTAAAGGAA; chemistry not given here)”, for which the Score_si2 was 1.87.

“Hs_ITGB4BP_1 (sense CTGGATCTATCATTACTGCAA; chemistry not given here)” gave a Score_si3 of 1.14.

Regarding “Hs_AP3S2_1 (TGGGATGGTGTTGGAAACAAA; chemistry not given here)”, the Score_si2 is 1.11.

The substance “Hs_FLJ10134_2 (CTCCTTGACCATGGAATTATA; chemistry not given here)” had a Score_si2 of 1.53.

“Hs_HMMR_2 (sense AAGTTAAGTCTTCGGAATCAA; chemistry not given here)” gave a Score_si1 of 2.42. Still for that read-out and setting: the result for “Hs_D21S2056E_1 (CAGGGAATTCAGCTCCAGTAA; chemistry not given here)” reads 2.83; that for “Hs_TADA3L_2 (sense ACCGACTGGCAGGATAAGAAA; chemistry not given here) [reference compound]”, -1.99. As for “s35401 (GGAACAAACTAGCCCTCAA; chemistry not given here)”, the Score_si2 worked out at 0.91.

“Hs_LOC283377_3 (sense CAGGCCTTTCTCAGACTGTAT; chemistry not given here)” had a Score_si1 of 2.72.

As to “s18706 (sense GAATCTGAACGAACGATAT; chemistry not given here) [reference compound]”, the Score_si4 is reported as -0.67.

“s12452 (sense GGACCAAGATGATCAGAAA; chemistry not given here)”: the Score_si4 was 0.08. Consider “n268452 (AGCTGGCCATCGAAAGGTA; chemistry not given here)”, for which the Score_si1 is 0.81. In turn, “s9338 (ACAAGCTCTCCAACAATTA; chemistry not given here) [reference compound]” displayed a Score_si2 of -0.79.

“s28296 (sense CTTCCTCGGTGGAACACGA; chemistry not given here)” gave a Score_si2 of 1.22. Still for that read-out and setting: as for “Hs_BOP1_2 (CTGCCATGGCATGGTGTACAA; chemistry not given here)”, the figure is 2.23.

For “s28993 (CCATAGATCTGAATTGGGA; chemistry not given here)”, the Score_si2 is 0.6.

Take “Hs_GNB2L1_2 (sense CAGATTGTCTCTGGATCTCGA; chemistry not given here)”: the Score_si1 amounted to 2.65. On to “s50141 (sense AGATACCTTTATGAATATA; chemistry not given here) [reference compound]”, for which the Score_si3 was -0.76. On the same count and under the same terms, the result for “Hs_PEX19_2 (TCCCTTGAGTATTTCAATGTA; chemistry not given here)” reads 0.58. Substance “Hs_YEATS4_2 (TTGGTAGTAAGCTAAACTGAA; chemistry not given here)” had a Score_si2 of 1.07. In turn, “s31659 (CCTCTGAGGTGATCAATGA; chemistry not given here)” had a Score_si3 of 1.43. “s6671 (sense CAACGAAAATCTAAATGCA; chemistry not given here)” gave a Score_si2 of 0.2. In turn, “Hs_ACYP1_1 (AAGGATTACCACTGTACACAA; chemistry not given here) [reference compound]” had a Score_si1 of -2.79. Substance “s16635 (GAGCACTACTTGTACATGA; chemistry not given here)” came in with a Score_si2 of 2.02. Consider “Hs_U2AF2_3 (TAAGACGAATTTGCTCATTAA; chemistry not given here)”, for which the Score_si1 is recorded as 2.74. Same read-out and setting: as for “Hs_PEX19_1 (ATGGGTGGCTTCATGAATTAA; chemistry not given here)”, the figure is 1.26. In the case of “s25624 (sense GGAATGGTGTTGATACAAA; chemistry not given here) [reference compound]”, the Score_si3 is -0.7. Substance “s6097 (sense TCAGGACCCTGTACACCCA; chemistry not given here)” gave a Score_si4 of 0.9.

As to “Hs_C15orf15_1 (CAGCATTTGTATAGTAACTAA; chemistry not given here)”, the Score_si1 is 1.89. Same read-out and setting: the result for “Hs_ATP6V0C_2 (CTGGATGTTTATTTATAAAGA; chemistry not given here)” reads 3.5. The substance “s2822 (sense TGCTGACTTTTAACCCACA; chemistry not given here)” registered a Score_si4 of 1. “s17000 (GATGAAAGGTTACAATCCA; chemistry not given here)”: the Score_si3 was 1.29.

“s15564 (sense GCTTGAAGCTGAAAAGCGA; chemistry not given here) [reference compound]” gave a Score_si4 of 1.62. Turning to “s195100 (sense GGGTGAATGTAGACCCTGA; chemistry not given here)”, the Score_si3 was determined as 1.95. On the same count and under the same terms, the result for “s15797 (GGAATTACGGAGATATAGA; chemistry not given here)” reads 1.45. Substance “s29 (CCCATAATATCATTGAGAA; chemistry not given here)” came in with a Score_si2 of 1.87. “Hs_BCHE_4 (CAGAACGTTGAACTTAGCTAA; chemistry not given here)” had a Score_si1 of 0.93. Still for that read-out and setting: the result for “Hs_GFRA4_2 (sense CAGGTCAGAGACCATCCAGAA; chemistry not given here)” reads 1.82.

Take “Hs_PRPF4B_2 (sense CACCCTTAAATCGTTATTAAT; chemistry not given here)”: the Score_si4 was 0.63.

In turn, “s32096 (GTTCCAGTATGGGAATTAT; chemistry not given here)” gave a Score_si3 of 1.63. Still for that read-out and setting: the result for “s20509 (sense GGACGGCCCAAATCCAAAA; chemistry not given here) [reference compound]” reads -0.99.

Regarding “Hs_TUSC1_2 (ACCGATCATTCTATTATCATT; chemistry not given here) [reference compound]”, the Score_si2 is listed as -1.18.

Substance “s16997 (CAGCTTCCATTATGCCCAA; chemistry not given here)” came in with a Score_si3 of 0.97.

“Hs_NPAT_1 (ACCAATGCACATATAATTTAA; chemistry not given here) [reference compound]” displayed a Score_si2 of -1.26.

On to “Hs_RTN2_2 (sense GAGCTTGGATTTACACTGTAA; chemistry not given here)”, for which the Score_si1 was found to be 2.8. The substance “s923 (AATTCAAGCTATGAAGATA; chemistry not given here)” yielded a Score_si2 of 1.99. In the case of “Hs_KRTHA2_2 (sense ATGGTTGTGAACATTGATAAT; chemistry not given here)”, the Score_si2 stood at 1.02. The substance “s322 (GGTTGTCCTTGAGTAATAA; chemistry not given here)” had a Score_si1 of 1.71. “Hs_CCDC6_2 (sense CAGGAATTTCAGGTCAACAAA; chemistry not given here) [reference compound]” yielded a Score_si2 of -0.83. “Hs_CALM2_7 (CAAAGGAATTGGGAACTGTAA; chemistry not given here)” showed a Score_si1 of 3.2. In the case of “Hs_GUCY1B3_3 (sense CAAGACTTTCTTCTAGATATA; chemistry not given here) [reference compound]”, the Score_si3 is recorded as -0.83.

As for “Hs_ADPRHL1_1 (CCCGACAATTATGATGCAGAA; chemistry not given here) [reference compound]”, the Score_si1 is on record as -2.15. “Hs_CRSP8_2 (sense TCGAACAATAGTAAAGGGATA; chemistry not given here) [reference compound]”: the Score_si2 was -1.08. “Hs_LTBP3_2 (CCGCTACTGCGTGGATGTGAA; chemistry not given here)” showed a Score_si4 of 1.32.
